Source: the supplement of paper PMC10307832

Key:
Test in all cases: relative viability (nuclei count vs DMSO), 5 days (fraction); higher = more cells survive
Zosuquidar + Alpelisib = compound: O[C@@H](COc1cccc2ncccc12)CN1CCN([C@@H]2c3ccccc3[C@@H]3[C@H](c4ccccc42)C3(F)F)CC1 [Zosuquidar] + Cc1nc(NC(=O)N2CCC[C@H]2C(N)=O)sc1-c1ccnc(C(C)(C)C(F)(F)F)c1 [Alpelisib] (partner 2 µM)
Summary of the method: (§1)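 Relative viability divides the nuclei count in treated wells by that in vehicle wells. Lung cancer cell lines were seeded in 1536-well plates, dosed by pin tool the next day, and fixed and stained after 5 days in one step with final 0.05% Triton X-100, 1% formaldehyde and 1 ug/ml Hoechst. Dosing was a single drug or a fixed anchor-drug dose plus five library-drug doses (not always all listed) in √10 steps, and values are medians of duplicate plates imaged at 4×.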

[1] = compound: COc1cc2nccc(Oc3ccc(NC(=O)C4(C(=O)Nc5ccc(F)cc5)CC4)cc3)c2cc1OC [Cabozantinib] + C[C@@H](Oc1cc(-c2cnn(C3CCNCC3)c2)cnc1N)c1c(Cl)ccc(F)c1Cl [Crizotinib] (partner 1 µM)
Summary of the method: as §1

Cabozantinib + Alpelisib = compound: COc1cc2nccc(Oc3ccc(NC(=O)C4(C(=O)Nc5ccc(F)cc5)CC4)cc3)c2cc1OC [Cabozantinib] + Cc1nc(NC(=O)N2CCC[C@H]2C(N)=O)sc1-c1ccnc(C(C)(C)C(F)(F)F)c1 [Alpelisib] (partner 2 µM)
Summary of the method: as §1

Kobe2602 + Alpelisib = compound: C1=CC(=CC=C1NC(=S)NNC2=C(C=C(C=C2[N+](=O)[O-])C(F)(F)F)[N+](=O)[O-])F [Kobe2602] + Cc1nc(NC(=O)N2CCC[C@H]2C(N)=O)sc1-c1ccnc(C(C)(C)C(F)(F)F)c1 [Alpelisib] (partner 2 µM)
Summary of the method: as §1

Row | Cell Line | relative viability (Zosuquidar + Alpelisib; first compound 0.01 µM) | relative viability (Zosuquidar + Alpelisib; first compound 0.03162 µM) | relative viability (Zosuquidar + Alpelisib; first compound 0.1 µM) | relative viability (Zosuquidar + Alpelisib; first compound 0.3162 µM) | relative viability (Zosuquidar + Alpelisib; first compound 1 µM) | relative viability ([1]; first compound 0.02 µM) | relative viability ([1]; first compound 0.06325 µM) | relative viability ([1]; first compound 0.6325 µM) | relative viability ([1]; first compound 2 µM) | relative viability (Cabozantinib + Alpelisib; first compound 0.02 µM) | relative viability (Cabozantinib + Alpelisib; first compound 0.06325 µM) | relative viability (Cabozantinib + Alpelisib; first compound 0.6325 µM) | relative viability (Cabozantinib + Alpelisib; first compound 2 µM) | relative viability (Kobe2602 + Alpelisib; first compound 0.2 µM) | relative viability (Kobe2602 + Alpelisib; first compound 0.6325 µM) | relative viability (Kobe2602 + Alpelisib; first compound 2 µM) | relative viability (Kobe2602 + Alpelisib; first compound 6.325 µM) | relative viability (Kobe2602 + Alpelisib; first compound 20 µM) | relative viability ([1]; first compound 0.2 µM) | relative viability (Cabozantinib + Alpelisib; first compound 0.2 µM)
1 | NCI-H322M | 0.836 | 0.739 | 0.648 | 0.859 | 0.728 | 1.02 | 1.04 | 0.945 | 0.861 | 0.77 | 0.881 | 0.846 | 0.773 | 0.808 | 0.81 | 0.828 | 0.827 | 0.792 | – | –
2 | NCI-H358 | 0.914 | 0.833 | 0.832 | 0.839 | 0.893 | 0.717 | 0.708 | 0.401 | 0.382 | 0.912 | 1.13 | 0.803 | 0.824 | 0.799 | 0.836 | 0.677 | 0.884 | 0.827 | 0.576 | 0.852
3 | NCI-H441 | 0.998 | 0.766 | 0.732 | – | 0.591 | 0.684 | 0.799 | 0.717 | 0.668 | – | 0.857 | 0.815 | 0.783 | 0.725 | 0.864 | 0.682 | 0.704 | 0.727 | 0.857 | 0.663
4 | NCI-H460 | 0.398 | 0.526 | 0.539 | 0.551 | 0.529 | 1.01 | 0.895 | 0.926 | 0.929 | 0.667 | 0.61 | 0.579 | 0.483 | 0.513 | 0.55 | 0.507 | 0.499 | 0.444 | 0.902 | 0.459
5 | NCI-H520 | 0.941 | 0.784 | 0.778 | 0.981 | 0.837 | 1.03 | 0.843 | 0.644 | 0.596 | 0.92 | 0.928 | 0.713 | 0.833 | 0.912 | 1.12 | 0.848 | 0.84 | 0.859 | 0.758 | 0.958
6 | NCI-H596 | 0.467 | 0.512 | 0.502 | 0.589 | 0.591 | 1.06 | 1.06 | 1.01 | 0.888 | 0.462 | 0.191 | 0.416 | 0.385 | 0.489 | 0.438 | 0.46 | 0.453 | 0.415 | 0.87 | 0.552
7 | NCI-H647 | 1.25 | 1.12 | 1.28 | 1.11 | 1.39 | 1.23 | 1.58 | 1.07 | 0.877 | 1.2 | 1.43 | 0.956 | 0.535 | 1.23 | 1.37 | 1.11 | 1.21 | 1.12 | 1.05 | 1.37
8 | NCI-H650 | 1.15 | 0.94 | – | 1.09 | 1.28 | 0.857 | 0.692 | 0.792 | 0.757 | 1.04 | 1.01 | 1.05 | 0.926 | 1.06 | 1.28 | 1.12 | 1.14 | 1.08 | 0.836 | 1.13
9 | NCI-H661 | 0.48 | 0.621 | 0.408 | 0.614 | 0.703 | – | 0.991 | 0.918 | 1.03 | 0.544 | 0.758 | 0.755 | 0.609 | 0.565 | 0.644 | 0.738 | 0.661 | 0.955 | 1.13 | 0.725
10 | NCI-H727 | 0.669 | 0.631 | 0.536 | 0.588 | 0.577 | 0.934 | 0.866 | 1.03 | 0.896 | 0.505 | 0.6 | 0.529 | 0.594 | 0.625 | 0.518 | 0.614 | 0.571 | 0.728 | 0.786 | 0.593
11 | NCI-H838 | 0.995 | 0.994 | 0.822 | 1.07 | 1.07 | 1.03 | 0.925 | 0.787 | 0.799 | 1.06 | 1.08 | 0.933 | 0.886 | 0.909 | 1.01 | 0.915 | 1 | 0.976 | 0.834 | 0.989
12 | NCI-H1299 | 1.07 | 0.998 | 1.05 | 0.995 | 1.05 | 0.977 | 0.998 | 0.973 | 0.993 | 1.06 | 1.06 | 1 | 1.12 | 1.02 | 1.05 | 1.08 | 1.13 | 1.05 | 0.648 | 1.12
13 | NCI-H1355 | 0.851 | 0.801 | 0.596 | 0.971 | 0.87 | 1.11 | 1.16 | 1.05 | 1.15 | 0.934 | 0.873 | 0.857 | 0.732 | 0.791 | 0.938 | 0.79 | 0.751 | 0.845 | 1.09 | 0.904
14 | NCI-H1437 | 0.966 | 0.961 | 0.935 | 1.01 | 0.994 | 1.02 | 1 | 0.976 | 0.792 | 1.03 | 1.03 | 1.02 | 0.934 | 0.938 | 1.01 | 0.914 | 0.956 | 0.938 | 0.955 | 0.992
15 | NCI-H1563 | 0.935 | 0.988 | 0.904 | 0.988 | 0.921 | 0.948 | 1.03 | 0.77 | 0.802 | 0.931 | 0.916 | 0.864 | 0.806 | 0.939 | 0.917 | 0.871 | 0.839 | 1.08 | 0.904 | 0.912
16 | NCI-H1651 | 1.05 | 1.02 | 0.856 | 0.915 | 0.975 | 0.821 | 0.866 | 0.846 | 0.842 | 0.883 | 0.998 | 0.952 | 0.728 | 0.964 | 0.932 | 0.792 | 0.809 | 0.965 | 0.885 | 0.97
